Source: patent US11084800B2 (Achillion Pharmaceuticals, Inc., priority 2017, dated 2021)

Target: Human Factor D (Homo sapiens (Human), UniProt P00746)
Assay: Human Factor D Assay
Type: biochemical
Details: Factor D inhibition, assay of Example 10; read-out: IC5 (Stars)
Method in brief: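 Thioester substrate Z-L-Lys-SBz (100 μM) with Ellman's reagent DTNB (100 μM) reports activity of 80 nM human serum-derived enzyme, kinetically at 405 nm over 30 min. Compound preincubated 5 min, room temperature, pH 7.5 Tris/1 M NaCl; IC50 by nonlinear fit of rates.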

Sequence of Human Factor D (P00746 26-253): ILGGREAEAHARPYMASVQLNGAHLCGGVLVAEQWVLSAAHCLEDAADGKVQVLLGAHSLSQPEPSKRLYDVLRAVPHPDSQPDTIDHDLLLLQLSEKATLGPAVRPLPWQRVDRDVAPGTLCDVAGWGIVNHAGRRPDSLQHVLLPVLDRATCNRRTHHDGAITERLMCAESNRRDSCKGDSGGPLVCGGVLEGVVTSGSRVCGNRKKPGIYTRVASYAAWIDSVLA

Compound	IC50 [nM]
CC(=O)c1nn(CC(=O)N2[C@H](C(=O)Nc3nc(Br)c(F)cc3C)C[C@@]3(CC#N)C[C@@H]23)c2cnc(-c3cnc(C)nc3)cc12 [Compound 249, (1R,3S,5R)-2-(2-(3-acetyl-5-(2-methylpyrimidin-5-yl)-1H-pyrazolo[3,4-c]pyridin-1-yl)acetyl)-N-(6-bromo-5-fluoro-3-methylpyridin-2-yl)-5-(cyanomethyl)-2-azabicyclo[3.1.0]hexane-3-carboxamide]	< 1000
CC(=O)c1nn(CC(=O)N2[C@H](C(=O)Nc3nc(Br)c(F)cc3C)C[C@@]3(Cc4nnc(C)o4)C[C@@H]23)c2c(C)cc(-c3cnc(C)nc3)cc12 [Compound 484, (1R,3S,5R)-2-(2-(3-acetyl-7-methyl-5-(2-methylpyrimidin-5-yl)-1H-indazol-1-yl)acetyl)-N-(6-bromo-5-fluoro-3-methylpyridin-2-yl)-5-((5-methyl-1,3,4-oxadiazol-2-yl)methyl)-2-azabicyclo[3.1.0]hexane-3-carboxamide]	< 1000
CC(=O)c1nn(CC(=O)N2[C@H](C(=O)NCc3cccc(Cl)c3F)C[C@@]3(Cc4nc(C)no4)C[C@@H]23)c2c(C)cc(-c3cnc(C)nc3)cc12 [Compound 427, (1R,3S,5R)-2-(2-(3-acetyl-7-methyl-5-(2-methylpyrimidin-5-yl)-1H-indazol-1-yl)acetyl)-N-(3-chloro-2-fluorobenzyl)-5-((3-methyl-1,2,4-oxadiazol-5-yl)methyl)-2-azabicyclo[3.1.0]hexane-3-carboxamide]	< 1000

Same assay, conditions: Table 6; Factor D 80 nM, substrate Z-L-Lys-SBz; read-out: IC50

Compound	IC50 [nM]
CC(=O)NC[C@@]12C[C@@H]1N(C(=O)Cn1nc(C(C)=O)c3cc(-c4cnc(C)nc4)ccc31)[C@H](C(=O)Nc1cccc(Br)n1)C2 [Compound 43, (1S,3S,5S)-5-(Acetamidomethyl)-2-(2-(3-acetyl-5-(2-methylpyrimidin-5-yl)-1H-indazol-1-yl)acetyl)-N-(6-bromopyridin-2-yl)-2-azabicyclo[3.1.0]hexane-3-carboxamide]	1000 to 10000
CC(=O)c1nn(CC(=O)N2[C@H](C(=O)Nc3nc(Br)ccc3C)C[C@@]3(C)C[C@@H]23)c2c(F)cc(-c3cnc(C)nc3)cc12 [Compound 147, (1R,3S,5R)-2-(2-(3-Acetyl-7-fluoro-5-(2-methylpyrimidin-5-yl)-1H-indazol-1-yl)acetyl)-N-(6-bromo-3-methylpyridin-2-yl)-5-methyl-2-azabicyclo[3.1.0]hexane-3-carboxamide]	< 1000
CC(=O)c1nn(CC(=O)N2[C@H](C(=O)Nc3nc(Br)c(F)cc3C)C[C@@]3(C)C[C@@H]23)c2c(C)nc(-c3cnc(C)nc3)cc12 [Compound 209, (1R,3S,5R)-2-(2-(3-acetyl-7-methyl-5-(2-methylpyrimidin-5-yl)-1H-pyrazolo[3,4-c]pyridin-1-yl)acetyl)-N-(6-bromo-5-fluoro-3-methylpyridin-2-yl)-5-methyl-2-azabicyclo[3.1.0]hexane-3-carboxamide]	< 1000
CC(=O)c1nn(CC(=O)N2[C@H](C(=O)Nc3nc(Br)ccc3CN(C)C)C[C@@]3(C)C[C@@H]23)c2ccc(-c3cnc(C)nc3)cc12 [Compound 91]	< 1000
C=CCOC[C@@]12C[C@@H](C(=O)Nc3nc(Br)ccc3C)N(C(=O)Cn3nc(C(C)=O)c4cc(-c5cnc(C)nc5)cc(CC=C)c43)[C@@H]1C2 [Compound 154, (1R,3S,5S)-2-(2-(3-acetyl-7-allyl-5-(2-methylpyrimidin-5-yl)-1H-indazol-1-yl)acetyl)-5-((allyloxy)methyl)-N-(6-bromo-3-methylpyridin-2-yl)-2-azabicyclo[3.1.0]hexane-3-carboxamide]	< 1000

Same assay, conditions: Table 8; Factor D 80 nM, substrate Z-L-Lys-SBz; read-out: IC50

Compound	IC50 [nM]
CCCCCCCCCNC(=O)[C@@H]1C[C@@]2(C)C[C@H]2N1C(=O)Cn1nc(C(C)=O)c2cc(-c3cnc(C)nc3)cc(C)c21 [Compound 530, (1R,3S,5R)-2-(2-(3-acetyl-7-methyl-5-(2-methylpyrimidin-5-yl)-1H-indazol-1-yl)acetyl)-5-methyl-N-nonyl-2-azabicyclo[3.1.0]hexane-3-carboxamide]	1000 to 10000
